8 molecules from patent US20220324835A1 (Nurix Therapeutics, Inc., priority 2018, published 2022) can be followed below.

The test system of assay [1] is T-cell. Kind of assay: IL-2 secretion from T-cells co-stimulated with anti-CD3 and anti-CD28 antibody (Biological Example 2). The class given is cell-based, human. As to conditions: Homo sapiens, T-cell, primary human total T-cells, baseline = anti-CD3/anti-CD28 stimulated cells without inhibitor, read-out: IL-2 secretion, Anti-CD3/Anti-CD28 stimulation, fold change over baseline; for fold induction at 0.3 µM: 0.3 μM compound; for fold induction at 1 µM: 1 μM compound; for fold induction at 4 µM: 4 μM compound. An outline of the steps: (§1)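 Values are fold-change over baseline: readings (IL-2 release, CD25 staining) from inhibitor-treated T-cells divided against untreated cells […]. No detailed procedure stated.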

Assay [2] has as its target T1, Cbl-b (Homo sapiens, UniProt Q13191). Kind of assay: Cbl-b activity assay (Cbl-b inhibition assay), TR-FRET of Cbl-b interaction with UbcH5B-Ub. The class given is biochemical. To be noted: assay buffer with 100 mM NaCl, 60 nM Src kinase; read-out: Cbl-b activity IC50. Put shortly:
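Compound-treated Cbl-b was incubated 1.5 h with Src kinase (60 nM final; 30 nM for asterisked values, which also used 50 mM instead of 100 mM NaCl), 1 mM ATP and 5 mM MgCl2. Binding to fluorescent Ub-loaded UbcH5B (C85K mutant) was then read by TR-FRET after 1 h more.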
On the technique in general: Time-resolved FRET reads energy transfer from a long-lived donor to a nearby acceptor.

In assay [3] the test system is T-cell. Kind of assay: CD25 cell surface staining on T-cells co-stimulated with anti-CD3 and anti-CD28 antibody (Biological Example 2). The class given is cell-based, human. As to conditions: Homo sapiens, T-cell, primary human total T-cells, baseline = anti-CD3/anti-CD28 stimulated cells without inhibitor, read-out: CD25 staining, Anti-CD3/Anti-CD28 stimulation, fold change over baseline; for fold induction at 0.3 µM: 0.3 μM compound; for fold induction at 1 µM: 1 μM compound; for fold induction at 4 µM: 4 μM compound. An outline of the steps:
as §1

In the next assay the target is Cbl-b (residues 36-427) (Homo sapiens, UniProt Q13191). Kind of assay: Cbl-b binding assay (SPR, Biacore T200). As to conditions: 20° C., 1:1 binding model. Put shortly:
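NeutrAvidin capture chip, 20° C; 50 s injections at 50 μl/min, 90-180 s dissociation; 0.3 M NaCl regeneration. Asterisked column: 50 mM NaCl buffer and 30 nM Src kinase in place of 100 mM NaCl and 60 nM Src kinase. 1:1 fit.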
Background: SPR reads the build-up and loss of mass on a sensor chip optically.

The subject of assay [4] is T-cell. Description: IL-2 secretion from T-cells stimulated with anti-CD3 antibody alone (Biological Example 2). As to conditions: primary human total T-cells, read-out: IL-2 secretion, Anti-CD3 stimulation, fold change over baseline; for fold induction at 1 µM: 1 μM compound; for fold induction at 8 µM: 8 μM compound. The class given is cell-based.
The target of assay [5] is T1, Cbl-b. Kind of assay: Cbl-b inhibition assay (Cbl-b activity assay, FRET, Biological Example 1; 100 mM NaCl, 60 nM Src kinase). The format is biochemical. To be noted: upper bound stated in text lists; read-out: IC50 values in the Cbl-b inhibition assay of Biological Example 1. An outline of the steps:
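Inhibitor activity is measured as reduced terbium-to-fluorescein FRET between streptavidin-terbium on biotinylated Cbl-b and Bodipy-fluorescein ubiquitin carried by an irreversible UbcH5B-Ub conjugate, binding of which depends on Src phosphorylation of Cbl-b.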

Assay [6] deals with T-cell. Description: CD25 cell surface staining on T-cells stimulated with anti-CD3 antibody alone (Biological Example 2). The class given is cell-based. As to conditions: primary human total T-cells, baseline = anti-CD3/anti-CD28 stimulated cells without inhibitor, read-out: CD25 staining, Anti-CD3 stimulation, fold change over baseline; for fold induction at 1 µM: 1 μM compound; for fold induction at 8 µM: 8 μM compound.

Bounds are passed on as bounds.

T1 sequence (Q13191 36-427): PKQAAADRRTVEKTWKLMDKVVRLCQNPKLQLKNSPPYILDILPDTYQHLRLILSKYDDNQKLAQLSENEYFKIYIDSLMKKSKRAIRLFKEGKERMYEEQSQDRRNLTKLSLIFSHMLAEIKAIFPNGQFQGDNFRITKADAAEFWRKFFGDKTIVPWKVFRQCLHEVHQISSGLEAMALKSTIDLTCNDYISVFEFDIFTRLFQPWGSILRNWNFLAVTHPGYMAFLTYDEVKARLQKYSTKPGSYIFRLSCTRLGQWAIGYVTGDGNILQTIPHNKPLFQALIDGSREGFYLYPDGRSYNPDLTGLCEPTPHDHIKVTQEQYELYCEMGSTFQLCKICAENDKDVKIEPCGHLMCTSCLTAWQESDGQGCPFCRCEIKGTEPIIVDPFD
Cbl-b (residues 36-427), sequence (Q13191 36-427): as above

For `Cn1cnnc1C(F)(F)[C@](C)(F)c1cccc(N2Cc3c(cc(CN4CC[C@@H](S(C)(=O)=O)C4)cc3C(F)(F)F)C2=O)c1` [Compound 458, 6-(((R)-3-(Methylsulfonyl)pyrrolidin-1-yl)methyl)-2-(3-((R)-1,1,2-trifluoro-1-(4-methyl-4H-1,2,4-triazol-3-yl)propan-2-yl)phenyl)-4-(trifluoromethyl)isoindolin-1-one], the fold induction at 0.3 µM in the assay with T-cell [1] lay in the range of 2.51 to 5; in the assay on T-cell [3], 1.01 to 1.3. Besides, the fold induction at 1 µM fell in the range of 5 to 7.5 in the assay on T-cell [1], 1.01 to 1.3 in the assay on T-cell [3], 0.151 to 0.2 with T-cell [4] and 0.801 to 1 in the assay with T-cell [6]. For the same molecule, the fold induction at 4 µM is above 7.5 with T-cell [1] and 1.31 to 1.5 in the assay on T-cell [3]. For the same molecule, the IC50 (as a rule, the concentration that inhibits the measured activity by half) was below 0.1 µM at Cbl-b [2] and at most 0.1 µM at Cbl-b [5]. Further, the Kd (in general, the concentration at which binding is half-saturated) on Cbl-b (residues 36-427) is below 0.1 µM. For the same molecule, the fold induction at 8 µM in the assay with T-cell [4] was above 0.201; in the assay with T-cell [6], above 1.
In the case of `Cc1c[nH]nc1C[C@@H](C)c1cccc(N2Cc3c(cc(C(=O)N4C[C@@H](O)C[C@H]4C)cc3C(F)(F)F)C2=O)c1` [Compound 464, 6-((2R,4S)-4-hydroxy-2-methylpyrrolidine-1-carbonyl)-2-(3-((R)-1-(4-methyl-1H-pyrazol-3-yl)propan-2-yl)phenyl)-4-(trifluoromethyl)isoindolin-1-one], the fold induction at 0.3 µM lay in the range of 1.01 to 2.5 with T-cell [1] and 1.01 to 1.3 in the assay on T-cell [3]. For the same molecule, the fold induction at 1 µM with T-cell [1] was 2.51 to 5; with T-cell [3], 1.01 to 1.3; in the assay with T-cell [4], 0.151 to 0.2; in the assay on T-cell [6], above 1. Moreover, the figures for the fold induction at 4 µM in the assay with T-cell [1] and in the assay with T-cell [3] were above 7.5 and 1.31 to 1.5, respectively. The IC50 at Cbl-b [2] was below 0.1 µM; at Cbl-b [5], at most 0.1 µM. On Cbl-b (residues 36-427), this molecule displayed a Kd below 0.1 µM. Moreover, the figures for the fold induction at 8 µM in the assay on T-cell [4] and in the assay with T-cell [6] were above 0.201 and above 1, respectively.
As for `C[C@H](Cc1n[nH]cc1C(F)(F)F)c1cccc(N2Cc3c(cc(C(=O)N4CC[C@H](O)C4)cc3C(F)(F)F)C2=O)c1` [Compound 465, 6-((S)-3-hydroxypyrrolidine-1-carbonyl)-4-(trifluoromethyl)-2-(3-((R)-1-(4-(trifluoromethyl)-1H-pyrazol-3-yl)propan-2-yl)phenyl)isoindolin-1-one], the results for the fold induction at 0.3 µM in the assay with T-cell [1] and in the assay with T-cell [3] were 1.01 to 2.5 and 1.01 to 1.3, respectively. Also, the fold induction at 1 µM was 1.01 to 2.5 with T-cell [1], 1.01 to 1.3 in the assay with T-cell [3], 0.051 to 0.1 with T-cell [4] and 0.801 to 1 in the assay with T-cell [6]. The results for the fold induction at 4 µM in the assay with T-cell [1] and in the assay with T-cell [3] were 2.51 to 5 and 1.01 to 1.3, respectively. For the same molecule, the figures for the half-maximal inhibitory concentration (IC50) on Cbl-b [2] and on Cbl-b [5] were below 0.1 µM and at most 0.1 µM, respectively. The molecule further displayed an equilibrium dissociation constant (Kd) at Cbl-b (residues 36-427) below 0.1 µM. Further, the fold induction at 8 µM in the assay with T-cell [4] was 0.151 to 0.2; in the assay on T-cell [6] it was above 1.
With `C[C@@H](c1cccc(N2Cc3c(cccc3C(F)(F)F)C2=O)c1)C(F)(F)c1nncn1C` [Compound 467a, (S)-2-(3-(1,1-difluoro-1-(4-methyl-4H-1,2,4-triazol-3-yl)propan-2-yl)phenyl)-4-(trifluoromethyl)isoindolin-1-one], the values for the fold induction at 0.3 µM in the assay with T-cell [1] and in the assay on T-cell [3] were 1.01 to 2.5 and 1.01 to 1.3, respectively. The fold induction at 1 µM with T-cell [1] was 1.01 to 2.5; in the assay on T-cell [3], 1.01 to 1.3; with T-cell [4], below 0.05; in the assay with T-cell [6], 0.601 to 0.8. The fold induction at 4 µM in the assay on T-cell [1] lay within 2.51 to 5; with T-cell [3], 1.01 to 1.3. In addition, the IC50 was 0.1 to 0.3 µM on Cbl-b [2] and at most 0.3 µM at Cbl-b [5]. At Cbl-b (residues 36-427), this molecule displayed a dissociation constant Kd of 0.301 to 1 µM. In addition, the fold induction at 8 µM in the assay on T-cell [4] was in the range of 0.101 to 0.15; with T-cell [6], 0.801 to 1.
Consider `Cn1cnnc1C[C@H](c1cccc(N2Cc3c(cccc3C(F)(F)F)C2=O)c1)C(F)(F)F` [Compound 471a, (R)-2-(3-(1,1,1-trifluoro-3-(4-methyl-4H-1,2,4-triazol-3-yl)propan-2-yl)phenyl)-4-(trifluoromethyl)isoindolin-1-one], for which the results for the fold induction at 0.3 µM with T-cell [1] and in the assay with T-cell [3] were 1.01 to 2.5 and 1.01 to 1.3, respectively. Moreover, the fold induction at 1 µM with T-cell [1] lay within 1.01 to 2.5; in the assay with T-cell [3] it was 1.01 to 1.3; in the assay on T-cell [4], 0.051 to 0.1; in the assay with T-cell [6] it was 0.601 to 0.8. The fold induction at 4 µM in the assay with T-cell [1] lay in the range of 1.01 to 2.5; with T-cell [3], 1.01 to 1.3. For the same molecule, the IC50 on Cbl-b [2] is 0.1 to 0.3 µM; at Cbl-b [5], at most 0.3 µM. Besides, at Cbl-b (residues 36-427), the dissociation constant (Kd) lay within 0.301 to 1 µM. The fold induction at 8 µM with T-cell [4] is 0.101 to 0.15; in the assay with T-cell [6], 0.801 to 1.
As for `Cn1cnnc1CC(C)(C)c1cccc(NC(=O)c2cc(C(=O)N3CC[C@H](O)C3)cc(C(F)(F)F)n2)c1` [Compound 475, (S)-4-(3-hydroxypyrrolidine-1-carbonyl)-N-(3-(2-methyl-1-(4-methyl-4H-1,2,4-triazol-3-yl)propan-2-yl)phenyl)-6-(trifluoromethyl)picolinamide], the fold induction at 0.3 µM in the assay with T-cell [1] was in the range of 1.01 to 2.5; with T-cell [3], 1.01 to 1.3. Moreover, the fold induction at 1 µM in the assay on T-cell [1] lay in the range of 2.51 to 5; in the assay on T-cell [3], 1.01 to 1.3; with T-cell [4], 0.101 to 0.15; in the assay with T-cell [6] it was 0.801 to 1. The fold induction at 4 µM was in the range of 5 to 7.5 with T-cell [1] and 1.01 to 1.3 with T-cell [3]. Besides, the values for the half-inhibitory concentration (IC50) at Cbl-b [2] and on Cbl-b [5] were below 0.1 µM and at most 0.1 µM, respectively. On Cbl-b (residues 36-427), this molecule showed a Kd of 0.1 to 0.3 µM. Besides, the fold induction at 8 µM with T-cell [4] was above 0.201; with T-cell [6], above 1.
Take `Cn1cnnc1CC(C)(C)c1cccc(N2Cc3c(cc(C4CC4)cc3C(F)(F)F)C2=O)c1` [Compound 477, 6-cyclopropyl-2-(3-(2-methyl-1-(4-methyl-4H-1,2,4-triazol-3-yl)propan-2-yl)phenyl)-4-(trifluoromethyl)isoindolin-1-one]: the values for the fold induction at 0.3 µM in the assay with T-cell [1] and in the assay with T-cell [3] were 1.01 to 2.5 and 1.01 to 1.3, respectively. Besides, the fold induction at 1 µM was 2.51 to 5 in the assay with T-cell [1], 1.01 to 1.3 in the assay on T-cell [3], 0.101 to 0.15 with T-cell [4] and 0.801 to 1 in the assay on T-cell [6]. Also, the fold induction at 4 µM in the assay on T-cell [1] lay within 5 to 7.5; in the assay on T-cell [3], 1.31 to 1.5. Moreover, the IC50 was below 0.1 µM at Cbl-b [2] and at most 0.1 µM at Cbl-b [5]. The same molecule showed a Kd on Cbl-b (residues 36-427) below 0.1 µM. The fold induction at 8 µM in the assay on T-cell [4] was above 0.201; in the assay on T-cell [6], above 1.
Consider `Cn1cnnc1CC1(c2cccc(NC(=O)c3cc(Cn4ccnn4)nc(C4CC4)n3)c2)COC1` [Compound 506, 2-cyclopropyl-N-(3-{3-[(4-methyl-1,2,4-triazol-3-yl)methyl]oxetan-3-yl}phenyl)-6-(1,2,3-triazol-1-ylmethyl)pyrimidine-4-carboxamide], for which the values for the fold induction at 0.3 µM in the assay with T-cell [1] and in the assay on T-cell [3] were 1.01 to 2.5 and 1.01 to 1.3, respectively. For the same molecule, the fold induction at 1 µM with T-cell [1] is 2.51 to 5; with T-cell [3] it was 1.31 to 1.5; in the assay with T-cell [4], 0.101 to 0.15; in the assay on T-cell [6], 0.801 to 1. The IC50 was below 0.1 µM at Cbl-b [2] and at most 0.1 µM on Cbl-b [5]. At Cbl-b (residues 36-427), this molecule registered a Kd below 0.1 µM.
